This is an account of results in article PMC7252619 (PLoS ONE, 2020).

What all share (test): Kinase activity test (ReactionBiology), % enzyme activity relative to DMSO
Holding throughout (format): biochemical

One assay has as its target VEGFR2 (Homo sapiens, UniProt P35968). Details: purchased ReactionBiology. As to conditions: VEGFR2; for % Enzyme Activity (relative to DMSO controls), Data 1: replicate Data 1; for % Enzyme Activity (relative to DMSO controls), Data 2: replicate Data 2.
For another assay, the target named is T1, EPHB4 (Homo sapiens, UniProt P54760).
T1 construct: purchased ReactionBiology
T1 sequence (P54760 16-987): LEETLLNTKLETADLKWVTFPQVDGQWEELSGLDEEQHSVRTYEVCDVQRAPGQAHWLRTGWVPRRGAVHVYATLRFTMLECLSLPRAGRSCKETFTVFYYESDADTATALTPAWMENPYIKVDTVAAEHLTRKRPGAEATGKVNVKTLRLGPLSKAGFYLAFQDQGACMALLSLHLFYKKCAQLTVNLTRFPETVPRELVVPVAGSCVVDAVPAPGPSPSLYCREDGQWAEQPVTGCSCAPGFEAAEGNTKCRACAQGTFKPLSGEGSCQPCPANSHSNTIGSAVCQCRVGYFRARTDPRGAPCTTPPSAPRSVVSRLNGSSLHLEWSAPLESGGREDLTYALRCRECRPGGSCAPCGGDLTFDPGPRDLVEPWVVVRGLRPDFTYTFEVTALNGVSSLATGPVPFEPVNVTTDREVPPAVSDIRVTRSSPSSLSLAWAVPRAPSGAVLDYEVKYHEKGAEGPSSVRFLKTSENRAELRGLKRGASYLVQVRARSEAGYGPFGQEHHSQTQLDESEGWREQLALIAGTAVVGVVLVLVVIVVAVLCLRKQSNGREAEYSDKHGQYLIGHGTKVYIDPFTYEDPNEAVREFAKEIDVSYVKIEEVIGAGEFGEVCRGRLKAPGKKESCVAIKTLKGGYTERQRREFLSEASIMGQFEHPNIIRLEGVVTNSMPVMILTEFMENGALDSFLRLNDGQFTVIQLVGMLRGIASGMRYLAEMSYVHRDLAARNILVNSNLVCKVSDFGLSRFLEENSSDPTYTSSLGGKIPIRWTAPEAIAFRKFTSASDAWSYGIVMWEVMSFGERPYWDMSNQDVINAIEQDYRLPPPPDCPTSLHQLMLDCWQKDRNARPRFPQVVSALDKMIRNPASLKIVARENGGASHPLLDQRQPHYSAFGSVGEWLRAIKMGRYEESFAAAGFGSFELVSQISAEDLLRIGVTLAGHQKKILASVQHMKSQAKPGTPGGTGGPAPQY
As to conditions: EPHB4; for % Enzyme Activity (relative to DMSO controls), Data 1: replicate Data 1; for % Enzyme Activity (relative to DMSO controls), Data 2: replicate Data 2.

In a further assay the target is T2, CK1d (Homo sapiens, UniProt P48730).
T2 construct: purchased ReactionBiology
As to conditions: CK1d; for % Enzyme Activity (relative to DMSO controls), Data 1: replicate Data 1; for % Enzyme Activity (relative to DMSO controls), Data 2: replicate Data 2.

The next assay deals with T3, NEK2 (Homo sapiens, UniProt P51955).
T3 construct: purchased ReactionBiology
T3 sequence (P51955 1-445): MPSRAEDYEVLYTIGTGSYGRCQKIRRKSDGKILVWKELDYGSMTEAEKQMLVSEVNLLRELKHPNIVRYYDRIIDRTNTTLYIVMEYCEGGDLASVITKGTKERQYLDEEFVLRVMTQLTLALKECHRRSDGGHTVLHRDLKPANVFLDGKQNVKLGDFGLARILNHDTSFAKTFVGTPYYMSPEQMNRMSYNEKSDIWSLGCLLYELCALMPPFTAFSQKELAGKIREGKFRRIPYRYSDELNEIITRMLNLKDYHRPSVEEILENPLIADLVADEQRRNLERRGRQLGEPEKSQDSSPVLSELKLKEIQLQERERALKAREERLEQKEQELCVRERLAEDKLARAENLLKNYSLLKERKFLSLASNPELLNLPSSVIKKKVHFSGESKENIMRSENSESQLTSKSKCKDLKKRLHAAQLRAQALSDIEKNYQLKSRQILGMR
As to conditions: NEK2; for % Enzyme Activity (relative to DMSO controls), Data 1: replicate Data 1; for % Enzyme Activity (relative to DMSO controls), Data 2: replicate Data 2.

The next assay has as its target T4, DAPK1 (Homo sapiens, UniProt P53355).
T4 construct: purchased ReactionBiology
Particulars: DAPK1; for % Enzyme Activity (relative to DMSO controls), Data 1: replicate Data 1; for % Enzyme Activity (relative to DMSO controls), Data 2: replicate Data 2.

T4 sequence (P53355 whole entry): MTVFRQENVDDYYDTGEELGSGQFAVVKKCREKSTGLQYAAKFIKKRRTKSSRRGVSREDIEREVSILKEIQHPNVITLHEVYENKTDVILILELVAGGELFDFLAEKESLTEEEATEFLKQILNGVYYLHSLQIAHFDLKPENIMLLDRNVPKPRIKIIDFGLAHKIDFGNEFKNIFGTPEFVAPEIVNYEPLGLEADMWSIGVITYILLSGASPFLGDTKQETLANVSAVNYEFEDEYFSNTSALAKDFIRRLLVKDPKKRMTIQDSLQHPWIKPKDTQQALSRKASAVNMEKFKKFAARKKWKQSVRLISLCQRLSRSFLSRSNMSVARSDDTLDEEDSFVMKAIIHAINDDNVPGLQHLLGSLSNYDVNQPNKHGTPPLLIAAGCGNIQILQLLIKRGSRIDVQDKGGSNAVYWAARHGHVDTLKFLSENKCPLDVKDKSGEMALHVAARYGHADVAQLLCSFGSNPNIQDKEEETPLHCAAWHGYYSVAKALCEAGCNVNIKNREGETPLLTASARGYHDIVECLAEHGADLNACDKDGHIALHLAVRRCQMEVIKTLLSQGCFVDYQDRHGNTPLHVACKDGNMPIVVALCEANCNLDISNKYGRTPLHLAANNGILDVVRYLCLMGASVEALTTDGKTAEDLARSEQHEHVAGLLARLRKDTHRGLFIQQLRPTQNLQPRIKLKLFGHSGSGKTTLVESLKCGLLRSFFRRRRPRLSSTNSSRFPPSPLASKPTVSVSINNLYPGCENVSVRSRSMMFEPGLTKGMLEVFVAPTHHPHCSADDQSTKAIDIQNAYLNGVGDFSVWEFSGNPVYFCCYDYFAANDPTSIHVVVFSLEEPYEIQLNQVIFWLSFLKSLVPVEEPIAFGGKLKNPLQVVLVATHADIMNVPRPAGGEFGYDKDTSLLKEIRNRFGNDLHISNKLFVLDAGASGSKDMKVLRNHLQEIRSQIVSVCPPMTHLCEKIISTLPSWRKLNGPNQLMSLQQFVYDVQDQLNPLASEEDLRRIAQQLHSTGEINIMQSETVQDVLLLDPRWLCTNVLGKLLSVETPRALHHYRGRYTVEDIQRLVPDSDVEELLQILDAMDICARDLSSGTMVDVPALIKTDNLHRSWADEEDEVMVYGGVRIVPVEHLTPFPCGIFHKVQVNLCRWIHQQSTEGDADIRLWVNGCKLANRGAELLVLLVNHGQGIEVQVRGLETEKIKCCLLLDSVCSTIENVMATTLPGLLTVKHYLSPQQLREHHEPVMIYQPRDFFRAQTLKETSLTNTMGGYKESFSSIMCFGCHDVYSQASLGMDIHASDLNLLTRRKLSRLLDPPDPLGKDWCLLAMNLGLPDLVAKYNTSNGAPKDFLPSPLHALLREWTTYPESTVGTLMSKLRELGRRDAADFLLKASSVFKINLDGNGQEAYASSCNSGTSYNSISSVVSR
VEGFR2, sequence (P35968 20-1356): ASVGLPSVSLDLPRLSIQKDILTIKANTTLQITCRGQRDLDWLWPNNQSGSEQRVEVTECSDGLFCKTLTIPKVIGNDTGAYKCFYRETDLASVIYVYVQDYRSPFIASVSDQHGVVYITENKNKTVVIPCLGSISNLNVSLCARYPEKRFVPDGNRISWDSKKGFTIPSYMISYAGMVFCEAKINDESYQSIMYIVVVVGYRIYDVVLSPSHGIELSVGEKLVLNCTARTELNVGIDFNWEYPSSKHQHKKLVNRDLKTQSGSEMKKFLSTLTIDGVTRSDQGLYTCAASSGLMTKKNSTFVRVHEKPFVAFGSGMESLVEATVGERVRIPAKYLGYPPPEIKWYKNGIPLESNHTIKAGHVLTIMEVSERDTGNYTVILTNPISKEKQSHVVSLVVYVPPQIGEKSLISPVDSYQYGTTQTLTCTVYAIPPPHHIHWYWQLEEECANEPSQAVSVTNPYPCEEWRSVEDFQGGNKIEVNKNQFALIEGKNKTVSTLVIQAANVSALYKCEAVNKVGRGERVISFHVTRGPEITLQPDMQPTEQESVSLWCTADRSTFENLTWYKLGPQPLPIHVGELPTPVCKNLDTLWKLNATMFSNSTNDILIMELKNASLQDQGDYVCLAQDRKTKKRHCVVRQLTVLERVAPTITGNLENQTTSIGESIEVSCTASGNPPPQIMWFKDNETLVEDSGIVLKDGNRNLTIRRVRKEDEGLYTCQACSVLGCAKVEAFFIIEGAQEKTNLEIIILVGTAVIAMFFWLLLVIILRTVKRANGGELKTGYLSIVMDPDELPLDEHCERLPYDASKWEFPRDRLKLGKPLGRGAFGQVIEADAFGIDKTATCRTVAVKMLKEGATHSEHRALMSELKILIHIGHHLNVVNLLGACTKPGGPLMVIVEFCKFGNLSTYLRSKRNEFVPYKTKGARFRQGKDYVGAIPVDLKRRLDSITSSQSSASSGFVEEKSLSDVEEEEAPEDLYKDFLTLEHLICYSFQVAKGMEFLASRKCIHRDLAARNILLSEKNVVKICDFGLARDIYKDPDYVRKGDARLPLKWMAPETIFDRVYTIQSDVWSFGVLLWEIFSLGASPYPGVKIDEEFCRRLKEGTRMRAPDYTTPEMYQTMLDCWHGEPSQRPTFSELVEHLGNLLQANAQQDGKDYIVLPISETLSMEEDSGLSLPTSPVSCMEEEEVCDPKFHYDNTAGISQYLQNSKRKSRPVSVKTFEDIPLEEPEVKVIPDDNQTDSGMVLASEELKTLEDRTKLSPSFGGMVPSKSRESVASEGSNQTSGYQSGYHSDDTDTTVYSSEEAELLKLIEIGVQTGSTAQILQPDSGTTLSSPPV
T2 sequence (P48730 whole entry): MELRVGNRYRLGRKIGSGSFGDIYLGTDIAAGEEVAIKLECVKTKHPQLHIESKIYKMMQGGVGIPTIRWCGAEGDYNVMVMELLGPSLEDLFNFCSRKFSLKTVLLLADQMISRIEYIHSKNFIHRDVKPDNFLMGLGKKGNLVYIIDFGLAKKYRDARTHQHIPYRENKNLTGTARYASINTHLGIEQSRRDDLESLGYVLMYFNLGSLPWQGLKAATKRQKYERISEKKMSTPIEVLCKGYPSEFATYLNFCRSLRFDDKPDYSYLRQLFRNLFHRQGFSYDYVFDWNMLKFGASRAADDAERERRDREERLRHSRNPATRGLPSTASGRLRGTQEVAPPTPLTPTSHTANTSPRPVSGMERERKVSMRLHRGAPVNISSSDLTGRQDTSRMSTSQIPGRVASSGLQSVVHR

For `Fc1ccc([C@@H]2CCNC[C@H]2COc2ccc3c(c2)OCO3)cc1` [Paroxetine], the “% Enzyme Activity (relative to DMSO controls), Average” value on VEGFR2 (1 uM) is 108.60%; on VEGFR2 (10 uM), 108.08%; at EPHB4 (1 uM), 110.35%; at EPHB4 (10 uM) it was 94.48%; at CK1d (10 uM), 105.10%.
With `C/C(O)=C(\C#N)C(=O)Nc1ccc(C(F)(F)F)cc1` [Teriflunomide], at EPHB4 (1 uM), the “% Enzyme Activity (relative to DMSO controls), Average” value is 101.51%; the “% Enzyme Activity (relative to DMSO controls), Data 1” value is given as 102.27%; the “% Enzyme Activity (relative to DMSO controls), Data 2” value is given as 100.74%. In addition, on EPHB4 (10 uM), the “% Enzyme Activity (relative to DMSO controls), Average” value stood at 94.56%; the “% Enzyme Activity (relative to DMSO controls), Data 1” value turned out to be 96.08%; the “% Enzyme Activity (relative to DMSO controls), Data 2” value worked out at 93.04%.
Take `CCc1nc(N)nc(N)c1-c1ccc(Cl)cc1` [Pyrimethamine]: the “% Enzyme Activity (relative to DMSO controls), Average” value is reported as 107.43% at VEGFR2 (1 uM); 102.76% at VEGFR2 (10 uM); 106.09% at NEK2 (1 uM); 102.63% on NEK2 (10 uM); 93.71% on CK1d (1 uM); 84.36% at CK1d (10 uM). Also, the “% Enzyme Activity (relative to DMSO controls), Data 1” value amounted to 104.33% on VEGFR2 (1 uM); 106.39% at VEGFR2 (10 uM); 107.69% at NEK2 (1 uM); 102.17% on NEK2 (10 uM); 95.24% at CK1d (1 uM); 85.89% on CK1d (10 uM). For the same molecule, the “% Enzyme Activity (relative to DMSO controls), Data 2” value on VEGFR2 (1 uM) is on record as 110.52%; at VEGFR2 (10 uM) it was 99.13%; at NEK2 (1 uM), 104.49%; on NEK2 (10 uM), 103.08%; at CK1d (1 uM), 92.18%; on CK1d (10 uM), 82.82%.
With `C[C@H]1O[C@@H](O[C@H]2[C@@H](O)C[C@H](O[C@H]3[C@@H](O)C[C@H](O[C@H]4CC[C@@]5(C)[C@H](CC[C@@H]6[C@@H]5C[C@@H](O)[C@]5(C)[C@@H](C7=CC(=O)OC7)CC[C@]65O)C4)O[C@@H]3C)O[C@@H]2C)C[C@H](O)[C@@H]1O` [Digoxin], the “% Enzyme Activity (relative to DMSO controls), Average” value is recorded as 101.58% at EPHB4 (1 uM), 92.84% at EPHB4 (10 uM), 103.51% on CK1d (1 uM) and 100.70% at CK1d (10 uM). In addition, the “% Enzyme Activity (relative to DMSO controls), Data 1” value on EPHB4 (1 uM) was found to be 99.88%; on EPHB4 (10 uM) it was 91.71%; on CK1d (1 uM), 105.62%; at CK1d (10 uM) it was 102.31%. In addition, the “% Enzyme Activity (relative to DMSO controls), Data 2” value on EPHB4 (1 uM) is 103.27%; at EPHB4 (10 uM), 93.96%; at CK1d (1 uM), 101.39%; on CK1d (10 uM), 99.09%.
For the molecule Penicillin, the “% Enzyme Activity (relative to DMSO controls), Average” value at EPHB4 (1 uM) is listed as 101.77%; at EPHB4 (10 uM), 95.95%; on CK1d (1 uM), 98.45%; at CK1d (10 uM), 115.43%. Moreover, the “% Enzyme Activity (relative to DMSO controls), Data 1” value at EPHB4 (1 uM) is listed as 104.24%; on EPHB4 (10 uM), 97.18%; on CK1d (1 uM) it was 97.41%; on CK1d (10 uM), 111.85%. Also, the “% Enzyme Activity (relative to DMSO controls), Data 2” value on EPHB4 (1 uM) amounted to 99.3%; at EPHB4 (10 uM) it was 94.72%; on CK1d (1 uM), 99.49%; on CK1d (10 uM), 119.01%.
As for `CCCCC1C(=O)N(c2ccccc2)N(c2ccccc2)C1=O` [Phenylbutazone], the “% Enzyme Activity (relative to DMSO controls), Average” value at VEGFR2 (1 uM) was found to be 106.05%; at VEGFR2 (10 uM) it was 96.15%; at EPHB4 (1 uM), 101.67%; at EPHB4 (10 uM), 94.49%. Also, the “% Enzyme Activity (relative to DMSO controls), Data 1” value at VEGFR2 (1 uM) is given as 102.9%; on VEGFR2 (10 uM) it was 86.33%; at EPHB4 (1 uM) it was 102.42%; on EPHB4 (10 uM), 94.37%. In addition, the “% Enzyme Activity (relative to DMSO controls), Data 2” value at VEGFR2 (1 uM) is reported as 109.19%; on VEGFR2 (10 uM), 105.96%; on EPHB4 (1 uM) it was 100.92%; at EPHB4 (10 uM), 94.61%.
Consider `COc1ccc2c3c1O[C@H]1C[C@@H](O)C=C[C@@]31CCN(C)C2` [Galantamine], for which the “% Enzyme Activity (relative to DMSO controls), Average” value is recorded as 103.82% on VEGFR2 (1 uM), 93.22% at VEGFR2 (10 uM), 104.29% at EPHB4 (1 uM) and 94.53% on EPHB4 (10 uM). In addition, the “% Enzyme Activity (relative to DMSO controls), Data 1” value at VEGFR2 (1 uM) is 106.14%; on VEGFR2 (10 uM), 95.78%; on EPHB4 (1 uM) it was 104.73%; on EPHB4 (10 uM), 95.37%. For the same molecule, the “% Enzyme Activity (relative to DMSO controls), Data 2” value on VEGFR2 (1 uM) worked out at 101.5%; at VEGFR2 (10 uM), 90.65%; on EPHB4 (1 uM), 103.85%; on EPHB4 (10 uM) it was 93.68%.
With `O=C1c2cccc3c2[C@H](CCC3)CN1[C@@H]1CN2CCC1CC2` [Palonosetron], on EPHB4 (1 uM), the “% Enzyme Activity (relative to DMSO controls), Average” value is on record as 97.11%; the “% Enzyme Activity (relative to DMSO controls), Data 1” value worked out at 97.96%; the “% Enzyme Activity (relative to DMSO controls), Data 2” value was found to be 96.26%. Also, on EPHB4 (10 uM), the “% Enzyme Activity (relative to DMSO controls), Average” value is 88.19%; the “% Enzyme Activity (relative to DMSO controls), Data 1” value is listed as 86.49%; the “% Enzyme Activity (relative to DMSO controls), Data 2” value amounted to 89.88%.
For the molecule `N[C@H]1C(O)O[C@H](CO)[C@@H](O)[C@@H]1O` (some centres unmarked) [Glucosamine], the “% Enzyme Activity (relative to DMSO controls), Average” value on NEK2 (1 uM) is recorded as 82.84%; at NEK2 (10 uM), 95.78%; on DAPK1 (1 uM), 102.43%; at DAPK1 (10 uM), 123.43%. The “% Enzyme Activity (relative to DMSO controls), Data 1” value was 79.92% on NEK2 (1 uM), 90.86% at NEK2 (10 uM), 102.25% at DAPK1 (1 uM) and 142.72% on DAPK1 (10 uM). Also, the “% Enzyme Activity (relative to DMSO controls), Data 2” value at NEK2 (1 uM) is given as 85.75%; at NEK2 (10 uM) it was 100.69%; on DAPK1 (1 uM), 102.61%; on DAPK1 (10 uM) it was 104.13%.
